Data from article PMC8592027, “Structure-Guided Design of D-Galactal Derivatives with High Affinity and Selectivity for the Galectin-8 N-Terminal Domain” (ACS Medicinal Chemistry Letters, 2021).

Tests used:
galectin-3 = target: T1, galectin-3 (Homo sapiens, UniProt P17931); test: Competitive fluorescence polarization assay, galectin-3; assay type: binding; details: mean ± SEM of n = 4–8
T1 construct: made in house
Experimental: 1. Competitive fluorescence polarization experiments:
Human galectins -1, -3, -4N, -4C, -7, -8N, -9N, and -9C were expressed and purified as previously described 30,41. Fluorescence polarisation experiments were performed using the PHERAstar FS plat e reader (software version 2.10 R3), and the fluorescence anisotropy of fluorescein tagged probes was measured by excitation at 485 nm and emission at 520 nm. The specific conditions for galectins -1, -3, -4N, -4C, -7, -8N, -9N, and -9C were kept as report ed30,41,42. The synthesised compounds were dissolved in pure DMSO at 20 mM concentration and diluted in PBS to 3-6 different concentrations, and each concentration was tested in duplicate. The highest inhibitor concentrations tested were 1.5 mM. The

[1] = system: IL-8 secretion from MDA-MB-231 cells; test: Multiplexed cytokine assay, IL-8 secretion; assay type: cell-based, human; details: 24 hours, vs untreated cells
Experimental: Figure 5 Effect of compounds 1 and 6a on the secretion of IL-6 and IL-8 expressed in pg/mL. The effects were measured after incubating the cells with the compounds at 10 and 100 μM. Compounds 1 and 6a reduce the secretion of IL-6 and IL-8 in a dose-dependent manner at 100 and 10 μM. Results shown are means ± SEM of three independent experiments. ns, not significant (p > 0.05); *p < 0.05 versus untreated controls.
Metabolic activity assay: […]
(§1) Briefly, the cells were treated with the selected compounds in 0.1% dimethyl sulfoxide (DMSO; vehicle), 0.1% DMSO (control vehicle), or medium (control) and seeded at a cell density of 5,500 cells/well (MDA-MB-231 cells) or 4 x 10^4 cells/well (K562 cells), 7000 cells/well (HepG2 cells) or 1 x 10^5 cells/well (human PBMCs) in duplicates (MDA-MB-231, K562, and […]) or triplicates for HepG2 cells (100 µL), in sterile 96-well plates. For the MDA-MB-231 and HepG2, the cells were left to adhere overnight before adding the compounds. The plates were then incubated for 24 hours (48 hours for HepG2), after which 15 µL of MTS reagent was added to each well. […]
HTX Multi-Mode; BioTek Instruments, Inc., VT, USA).
Multiplexed cytokine assay:
MDA-MB-231 cells were seeded in 96-well flat-bottom plates at a density of 2 x 10^4 cells/well in 100 µL of medium and allowed to adhere for 24 hours at 37 °C and 5% CO2. The medium was then replaced by a fresh medium containing the desired concentrations of compounds 1 and 6a, after which the cells were cells incubated again for 24 hours at 37 °C and 5% CO2. Cell-free supernatants were collected and stored at – 80 °C before the analysis. The cytokines secretion was assessed by BD Cytometric Bead Array Human inflammatory cytokine Kit (content: IL-1, IL-6, IL-8, IL-10, IL-12p). The flow cytometric analyses were performed on an Attune NxT flow cytometer (Thermo Fisher Scientific, Waltham, MA, USA). Standard curves were generated using recombinant cytokines provided in the kit, and the data were analyzed with FlowJo software (Tree Star, Inc., Ashland, OR). The results are expressed in pg/mL. Data are represented as means ± standard deviation (SD) from three representative independent experiments.
(§2) All experiments were performed at least twice, with average values expressed as means ± SD. All data were analyzed with the statistical software GraphPad Prism 8.0 (GraphPad Software, Inc., CA, USA). by one-way ANOVA followed with Dunnett’s multiple compar ison test. Differences were considered non-significant for p > 0.05, and significant (*) for p < 0.05.

[2] = system: human peripheral blood mononuclear cells (PBMCs); test: MTS metabolic activity (cytotoxicity) assay, PBMCs; assay type: cell-based; details: concentrations up to 100 μM, 24 hours
Experimental: We have investigated the cytotoxicity of the compounds 1, 6a, and 6c via a (3-(4,5-dimethylthiazol-2-yl)-5-(3-carboxymethoxyphenyl)-2-(4-sulfophenyl)-2H-tetrazolium) (MTS) assay in K562 and MDA-MB-231 cancer cell lines to establish the direct antitumor activity of compounds, as well as human peripheral blood mononuclear cells (PBMCs), to evaluate their safety.
Metabolic activity assay:
as §1, with “The metabolic activities of the cell lines were determined using the CellTiter 96 Aqueous One Solution cell proliferation assay (MTS Reagents, Promega, Madison, WI, USA), according to the manufacturer instructions. Briefly,” for “Briefly,”, “well. After 30-90 minute of incubation, the absorbance was measured at 492 nm using a microplate reader (Synergy HTX Multi-Mode; BioTek Instruments, Inc., VT, USA).” for “well.”
Bead Array Human inflammatory cytokine Kit (content: IL-1, IL-6, IL-8, IL-10, IL-12p). The flow cytometric analyses were performed on an Attune NxT flow cytometer (Thermo Fisher Scientific, […]
Data are represented as means ± standard deviation (SD) from three representative independent experiments.
as §2, with “0.05. […]” for “0.05.”

galectin-2 = target: T2, galectin-2 (Homo sapiens, UniProt P05162); test: Competitive fluorescence polarization assay, galectin-2; assay type: binding; details: mean ± SEM of n = 4–8
T2 sequence (P05162 1-132): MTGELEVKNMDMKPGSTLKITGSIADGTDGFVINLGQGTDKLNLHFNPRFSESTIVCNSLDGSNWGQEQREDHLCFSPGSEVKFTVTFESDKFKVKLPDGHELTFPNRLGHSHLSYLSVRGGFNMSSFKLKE

T1 sequence (P17931 whole entry): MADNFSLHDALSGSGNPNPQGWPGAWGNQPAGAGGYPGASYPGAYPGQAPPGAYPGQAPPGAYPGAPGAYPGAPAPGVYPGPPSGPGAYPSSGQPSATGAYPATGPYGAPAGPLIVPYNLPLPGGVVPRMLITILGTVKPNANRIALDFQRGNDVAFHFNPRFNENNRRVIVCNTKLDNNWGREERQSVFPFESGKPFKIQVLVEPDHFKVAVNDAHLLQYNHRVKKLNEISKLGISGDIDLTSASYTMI

## Cn1c(CO[C@@H]2C=CO[C@H](CO)[C@@H]2O)nc2ccc(C(=O)O)cc21 [6a]
galectin-3
  Kd: 690 ± 30 µM
[1]; 10 μM, effect not significant
  reduction in IL-8 secretion: ~20%
[1]; 100 μM
  reduction of IL-8 secretion: about 55%
[2]
  direct cytotoxicity (MTS), PBMCs: lack of direct cytotoxicity
galectin-2
  Kd: 1400 ± 24 µM
